Assay results from patent publication US8377948B2, “Antitumor agents and methods of their use” (The Ohio State University Research Foundation, priority 2004, dated 2013).
Each block holds one compound with its values, some of them ahead of it.

Columns and labels:
PC-3 cells [1] = experiment: MTT cell viability assay, PC-3 cells in 10% FBS medium; type: cell-based, human; conditions: RPMI 1640 with 10% FBS, means ± S.D. (n = 6)
Experimental: PC-3 (p53−/−) human androgen-nonresponsive prostate cancer cells were purchased from the American Type Tissue Collection (Manassas, Va.). Cells were cultured in RPMI 1640 medium (Gibco, Grand Island, N.Y.) supplemented with 10% fetal bovine serum (FBS; Gibco) at 37° C. in a humidified incubator containing 5% CO2.
(§1) Effect of the test agent on cell viability was assessed by the MTT {[3-(4,5-dimethylthiazol-2-yl)-2,5-diphenyl-2H-tetrazolium bromide]} assay in 96-well, flat-bottomed plates, in which 8,000 PC-3 or DU-145 cells/well were seeded. Cells were exposed to the test agent at the indicated concentrations, in six replicates, in 10% FBS-supplemented-RPMI-1640 medium at 37° C. in 5% CO2 for 48 hr. The medium was removed and replaced by 150 μL of 0.5 mg/mL of MTT in RPMI-1640 medium, and cells were incubated in the CO2 incubator at 37° C. for 2 h. Supernatants were removed from the wells, and the reduced MTT dye was solubilized with 200 μL/well DMSO. Absorbance was determined on a plate reader at 570 nm.
All compounds were evaluated for their ability to induce apoptotic death in human androgen-independent PC-3 prostate cancer in RPMI 1640 medium containing 10% fetal bovine serum (FBS). For representative compounds tested in DU-145 and LNCaP prostate cancer cells, the IC50 values for inhibiting cell proliferation were similar in these three cell lines irrespective of differences in androgen sensitivity, PTEN mutation, the functional status of p53 and Rb, and other biomarkers.

PC-3 cells [2] = experiment: Cell viability / apoptotic death of PC-3 cells in 1% FBS-supplemented RPMI 1640 medium; type: cell-based, human; conditions: for IC50: 1% FBS-supplemented medium
Text: (§2) (A) Left panel, Time- and dose-dependent effect of doxazosin on the cell viability of PC-3 cells in 1% FBS-supplemented RPMI 1640 medium. Values obtained from six replicates were plotted at each time point at the indicated concentrations of doxazosin. Right panel, induction of poly(ADP-ribose) polymerase (PARP) cleavage by doxazosin at the indicated concentrations after 48-h treatment. PARP proteolysis to the apoptosis-specific 85-kd fragment was monitored by Western blotting. Although there was no substantial accumulation of the 85-kd fragment, significant decrease in the level of native protein was noted. (B) Dose- and time-dependent (upper and lower panels, respectively) effects of doxazosin on Akt phosphorylation. (C) dose-dependent effect of doxazosin on ERK phosphorylation. PC-3 cells were treated with doxazosin at the indicated concentrations for 24 h or at 25 μM for the indicated times and lysed, and proteins in the resulting supernatants were resolved on SDS-PAGE and subjected to Western blot analysis. The phosphorylation status of Akt and ERKs was determined by immunoblotting with the respective phospho-specific antibodies. Unphosphorylated Akt and ERKs, as immunostained by anti-Akt and anti-ERK antibodies, were used as internal standards for the comparison of phospho-Akt and phospho-ERK levels among samples of different preparations. The blots are representative of three independent experiments.
(§3) (B) Western blot analysis of […] proteolysis and Akt dephosphorylation in PC-3 cells treated with the indicated concentrations of 33 for 48 h. (C) Effects of compound 44 on Akt phosphorylation in PC-3 cells treated with the indicated concentrations for 48 h.
as §1
Doxazosin induced apoptosis, in part, by facilitating Akt dephosphorylation. […] The potency of doxazosin in inducing apoptosis, however, was moderate.

Akt = experiment: Western blot analysis of Akt phosphorylation in PC-3 cells; type: cell-based, human; conditions: for effect on Akt phosphorylation: Western blot
Text: as §2, §3
PC-3 cells (1.5×106) treated with the test agent at the indicated concentrations in RPMI 1640 medium for 24 h were collected and sonicated. Protein concentrations of the lysates were determined by using a Bradford protein assay kit (Bio-Rad, Hercules, Calif.); equivalent amounts of proteins from each lysate were resolved in 10% SDS-polyacrylamide gel and then transferred onto Immobilon-nitrocellulose membranes (Millipore, Bellerica, MA) in a semidry transfer cell. The transblotted membrane was washed twice with Tris-buffered saline (TBS) containing 0.1% Tween 20 (TBST). After blocking with TBST containing 5% nonfat milk for 40 min, the membrane was incubated with the primary antibody (1:1000 dilution) in TBST-1% nonfat milk at 4° C. overnight. After treatment with the primary antibody, the membrane was washed three times with TBST for a total of 15 min, followed by goat anti-rabbit or anti-mouse IgG-horseradish peroxidase conjugates (diluted 1:3000) for 1 h at room temperature and wash three times with TBST for a total of 1 h. The immunoblots were visualized by enhanced chemiluminescence.

[3] = system: sixty human tumor cells lines; experiment: NCI Developmental Therapeutic Program screening against sixty human tumor cell lines; type: cell-based; conditions: for GI50: Homo sapiens, mean among sixty cell lines, read-out: mean GI50 (concentration resulting in 50% growth inhibition); for sensitivity of all tested cell lines to growth inhibitory effects: sixty cell lines
Text: (§4) Further structural improvement was accomplished by replacing the methoxy side chains on the quinazoline ring with propoxy functions. Both 33 and 44 were effective in suppressing the proliferation of different prostate cancer cell lines at low μM levels. In addition, both agents were submitted to the Developmental Therapeutic Program (DTP) at the National Cancer Institute (NCI) for screening against sixty human tumor cells lines, representing leukemia, melanoma, and cancers of lung, colon, brain, ovary, breast, prostate, and kidney.

[4] = system: different prostate cancer cell lines; experiment: Proliferation of different prostate cancer cell lines; type: cell-based; conditions: at low μM levels
Text: as §4

ERKs = experiment: Western blot analysis of ERK phosphorylation in PC-3 cells; type: cell-based, human; conditions: even at 50 μM
Text: (A) Left panel, Time- and dose-dependent effect of doxazosin on the cell viability of PC-3 cells in 1% FBS-supplemented RPMI 1640 medium. Values obtained from six replicates were plotted at each time point at the indicated concentrations of doxazosin. Right panel, induction of poly(ADP-ribose) polymerase (PARP) cleavage by doxazosin at the indicated concentrations after 48-h treatment. PARP proteolysis to the apoptosis-specific 85-kd fragment was monitored by Western blotting. Although there was no substantial accumulation of the 85-kd fragment, significant decrease in the level of native protein was noted. (B) Dose- and time-dependent (upper and lower panels, respectively) effects of doxazosin on Akt phosphorylation. (C) dose-dependent effect of doxazosin on ERK phosphorylation. […] The phosphorylation status of Akt and ERKs was determined by immunoblotting with the respective phospho-specific antibodies. […]
PC-3 cells (1.5×106) treated with the test agent at the indicated concentrations in RPMI 1640 medium for 24 h were collected and sonicated. Protein concentrations of the lysates were determined by using a Bradford protein assay kit (Bio-Rad, Hercules, Calif.); equivalent amounts of proteins from each lysate were resolved in 10% SDS-polyacrylamide gel and then transferred onto Immobilon-nitrocellulose membranes (Millipore, Bellerica, MA) in a semidry transfer cell. […]

immunoprecipitated Akt = immunoprecipitated Akt (Homo sapiens, UniProt P31749); experiment: Kinase activity of immunoprecipitated Akt; type: biochemical
[5] = system: PC-3 cells overexpressing Akt^T308D/S473D; experiment: Viability of PC-3 cells transiently transfected with constitutively active Akt; type: cell-based, human; conditions: 25 μM, 1% FBS-supplemented medium, 24 h, versus empty pcDNA vector
Experimental: (A) Expression of Akt^T308D/S473D in PC-3 transient transfection. Western blot analysis used antibodies against Akt, and the HA tag. B) Viability of PC-3 cells overexpressing Akt^T308D/S473D vis-à-vis cells transfected with empty pcDNA vector (mock) in the presence of 25 μM doxazosin in 1% FBS-supplemented medium for 24 h. Values are means±S.D. (n=3).
The constitutively active Akt construct HA-PKB-T308D/S473D was kindly provided by Dr. Brain Hemmings (Friedrich Miescher Institute, Basel, Switzerland). PC-3 cells were seeded into T-75 flasks (1.5×10^6/flask). Aliquots containing 3 μg of each plasmid or a control pcDNA3.1(+) vector in 750 μl of Opti-MEM medium (Invitrogen-Life Technologies, Inc.,) was incubated with 9 μl of the FuGene 6 reagent (Roche Diagnostics Corp., Indianapolis, Ind.) for 15 min. Each flask was washed with Opti-MEM medium and then received the plasmid-FuGene 6 mixture and 4 ml of Opti-MEM medium. The flask was placed in a CO2 incubator for 4 h, and the transfection medium was replaced with 10% FBS-supplemented RPMI 1640. […]
To examine the causal relationship between Akt deactivation and doxazosin-mediated apoptosis, the protective effect of the transient transfection of constitutively active Akt, Akt^T308D/S473D (ref. 14), on drug-induced PC-3 cell death, was assessed. […]

serum proteins = conditions: cited from earlier work

Sequence of immunoprecipitated Akt (P31749 whole entry): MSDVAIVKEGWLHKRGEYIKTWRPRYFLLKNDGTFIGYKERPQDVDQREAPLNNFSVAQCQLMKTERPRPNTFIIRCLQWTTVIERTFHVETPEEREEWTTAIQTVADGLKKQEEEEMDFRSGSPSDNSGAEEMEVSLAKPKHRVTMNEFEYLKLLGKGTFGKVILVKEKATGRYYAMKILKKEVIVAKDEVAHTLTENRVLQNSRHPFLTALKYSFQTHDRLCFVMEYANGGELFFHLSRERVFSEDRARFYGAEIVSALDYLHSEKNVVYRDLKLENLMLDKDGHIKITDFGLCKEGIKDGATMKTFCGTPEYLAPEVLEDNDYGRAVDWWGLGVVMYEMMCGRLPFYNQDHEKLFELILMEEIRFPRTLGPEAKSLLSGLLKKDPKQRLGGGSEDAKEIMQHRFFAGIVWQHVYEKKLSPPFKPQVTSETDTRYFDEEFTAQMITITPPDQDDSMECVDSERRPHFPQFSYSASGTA

IC50 (PC-3 cells [1]; Homo sapiens, PC-3, 48 h): 4 to 5 µM
IC50 (PC-3 cells [1]; 48 h): 4.2 ± 0.8 µM
SMILES: COc1cc2nc(N3CCN(S(=O)(=O)c4ccc(-c5ccccc5)cc4)CC3)nc(N)c2cc1OC [Compound 33, 2-[4-(Biphenyl-4-sulfonyl)-piperazin-1-yl]-6,7-dimethoxy-quinazolin-4-ylamine]
IC50 (PC-3 cells [2]; Homo sapiens, 48 h, read-out: IC50): ~2.5 µM
effect on Akt phosphorylation (Akt): inhibition of Akt activation
GI50 [3]: 2.2 µM
sensitivity of all tested cell lines to growth inhibitory effects [3]: high degree of sensitivity
suppressing the proliferation [4]: effective

IC50 (PC-3 cells [1]; Homo sapiens, PC-3, 48 h): 3.3 ± 0.3 µM
SMILES: COc1cc2nc(N3CCN(S(=O)(=O)c4ccc(-c5ccc(C(F)(F)F)cc5)cc4)CC3)nc(N)c2cc1OC [Compound 37, 6,7-Dimethoxy-2-[4-(4′-trifluoromethyl-biphenyl-4-sulfonyl)-piperazin-1-yl]-quinazolin-4-yl-amine]

IC50 (PC-3 cells [1]; Homo sapiens, PC-3, 48 h): 7.2 ± 0.5 µM
SMILES: COc1cc2nc(N3CCN(S(=O)(=O)c4ccc(-c5ccc(S(C)(=O)=O)cc5)cc4)CC3)nc(N)c2cc1OC [Compound 38, 2-[4-(4′-Methanesulfonyl-biphenyl-4-sulfonyl)-piperazin-1-yl]-6,7-dimethoxy-quinazolin-4-ylamine]

IC50 (PC-3 cells [1]; Homo sapiens, PC-3, 48 h): 3.4 ± 0.2 µM
SMILES: CCCCc1ccc(-c2ccc(S(=O)(=O)N3CCN(c4nc(N)c5cc(OC)c(OC)cc5n4)CC3)cc2)cc1 [Compound 39, 2-[4-(4′-Butyl-biphenyl-4-sulfonyl)-piperazin-1-yl]-6,7-dimethoxy-quinazolin-4-yl-amine]

IC50 (PC-3 cells [1]; Homo sapiens, PC-3, 48 h): 10 ± 2 µM
SMILES: COc1cc2nc(N3CCN(S(=O)(=O)c4ccc(-c5ccc(C(C)(C)C)cc5)cc4)CC3)nc(N)c2cc1OC [Compound 40, 2-[4-(4′-tert-Butyl-biphenyl-4-sulfonyl)-piperazin-1-yl]-6,7-dimethoxy-quinazolin-4-yl-amine]

IC50 (PC-3 cells [1]; Homo sapiens, PC-3, 48 h): 3.3 ± 0.4 µM
SMILES: C=CCOc1cc2nc(N3CCN(S(=O)(=O)c4ccc(-c5ccccc5)cc4)CC3)nc(N)c2cc1OCC=C [Compound 43, 6,7-Bis-allyloxy-2-[4-(biphenyl-4-sulfonyl)-piperazin-1-yl]-quinazolin-4-ylamine]

IC50 (PC-3 cells [1]; Homo sapiens, PC-3, 48 h): 2.5 µM
SMILES: CCCOc1cc2nc(N3CCN(S(=O)(=O)c4ccc(-c5ccccc5)cc4)CC3)nc(N)c2cc1OCCC [Compound 44, 2-[4-(Biphenyl-4-sulfonyl)-piperazin-1-yl]-6,7-dipropoxy-quinazolin-4-yl-amine]
concentration at which dephosphorylation of phospho-Akt was evident (as low as) (Akt; 48 h, Western blot (FIG. 6C)): 1 µM
effect on Akt phosphorylation (Akt): dephosphorylation of phospho-Akt in a dose-dependent manner
GI50 [3]: 1.5 µM
sensitivity of all tested cell lines to growth inhibitory effects [3]: high degree of sensitivity
suppressing the proliferation [4]: effective

IC50 (PC-3 cells [1]; Homo sapiens, PC-3, 48 h): 24 µM
SMILES: CC(C)Oc1cc2nc(N3CCN(S(=O)(=O)c4ccc(-c5ccccc5)cc4)CC3)nc(N)c2cc1OC(C)C [Compound 45, 2-[4-(Biphenyl-4-sulfonyl)-piperazin-1-yl]-6,7-diisopropoxy-quinazolin-4-yl-amine]

SMILES: CCCCOc1cc2nc(N3CCN(S(=O)(=O)c4ccc(-c5ccccc5)cc4)CC3)nc(N)c2cc1OCCCC [Compound 46, 2-[4-(Biphenyl-4-sulfonyl)-piperazin-1-yl]-6,7-dibutoxy-quinazolin-4-ylamine]
IC50 (PC-3 cells [1]; Homo sapiens, PC-3, 48 h): 3.5 ± 0.4 µM

SMILES: COc1cc2nc(N3CCN(C(=O)C4COc5ccccc5O4)CC3)nc(N)c2cc1OC (centres unmarked) [Doxazosin]
IC50 (PC-3 cells [1]; 48 h): 45 µM
apoptotic death (PC-3 cells [2]; 1% FBS-supplemented RPMI 1640, 10 μM): no appreciable apoptotic death
drug-induced apoptosis (PC-3 cells [2]; 1% FBS-supplemented RPMI 1640, 25 μM and up): susceptible to the drug-induced apoptosis
IC50 (PC-3 cells [2]; read-out: IC50, apoptosis-inducing potency): 20 µM
effect on Akt phosphorylation (Akt): Akt dephosphorylation in a dose- and time-dependent manner
effect on phosphorylation status of ERKs (ERKs): did not affect
inhibitory effect on kinase activity of immunoprecipitated Akt (immunoprecipitated Akt): no inhibitory effects
protection by Akt^T308D/S473D against drug-induced apoptotic death [5]: partial, yet significant, protection
binding affinity with serum proteins (serum proteins): high binding affinity
